Laboratory results: patent US20190297888A1, “FUNGICIDAL COMPOUNDS AND MIXTURES FOR FUNGAL CONTROL IN CEREALS” (Dow AgroSciences LLC, priority 2016, published 2019)

Columns and labels:
Format in all cases: in vivo
[1] = system: Zymoseptoria tritici (SEPTTR); experiment: Field assessment of Compound I and penthiopyrad on leaf blotch of wheat (AUDPC % control); settings: AUDPC-based, 3 field trials
Excerpt: Treatments consisting of the compound of Formula I and fungicide compound penthiopyrad were applied either using individually or as a two-way mixture of penthiopyrad with the compound of Formula I. The compound of Formula I was applied with Agnique BP-420 (50% w/w at 0.3% v/v) at 75 and 150 g ai/ha and Penthiopyrad (Vertisan) was applied at 125 and 200 g ai/ha. Commercial standards used in the studies were Fluxapyroxad (Imtrex), applied at 100 g ai/ha, and Metconazole+Fluxapyroxad (Librax), applied at 161 g ai/ha.
Fungicidal treatments containing the compound of Formula I and penthiopyrad, either individually or as a two-way mixture, were assessed against leaf spot of wheat (SEPTTR) in three separate field trials. In the first trial, fungicidal treatments were applied at B33 (3% infection at application on L3) growth stage of winter wheat (TRZAW, Dinosor variety). The treatments were part of an experimental trial designed as a randomized complete block with four replications and a plot of approximately 1×6 m. Treatments were applied at water volume of 200 L/ha, using a backpack plot sprayer (BKPCKENG, FLATFANA nozzle) and pressurized at 200 kPa.
(§1) In the second trial, fungicidal treatments were applied twice at B32 (curative, 25% infection at application on L5) and B37-39 (5% infection at application on L3) growth stages of winter wheat (TRZAW, Consort variety). The treatments were part of an experimental trial designed as a randomized complete block with four replications and a plot of approximately 1×2 m. Treatments were applied at water volume of 200 L/ha, using a backpack plot sprayer (BKPCKAIR, Flat fan nozzle) and pressurized at 210 kPa.
In the final trial, fungicidal treatments were applied twice at B32 (protective, 15% infection at application on L6) and B37-39 (12% infection at application on L5) growth stages of winter wheat (TRZAW, Smaragd variety). The treatments were part of an experimental trial designed as a randomized complete block with four replications and a plot of approximately 2×3 m. Treatments were applied at water volume of 200 L/ha, using a backpack plot sprayer (BICYCAIR, FLATFANA nozzle) and pressurized at 220 kPa.
Disease severity (percentage of visual diseased foliage on whole plot or leaves) in […] field trials was recorded following EPPO PP1/26 guideline prescriptions. Area under the disease progress curve (AUDPC) was calculated for each plot in both trials using the sets of recorded severity data. Relative AUDPC (% control based on AUDPC) was calculated as percent of the nontreated control. Final results for the control of leaf spot of wheat by the compound of Formula I, penthiopyrad and mixtures are reported as an average of the relative AUDPC calculated over all three field trials. […]

[2] = system: Zymoseptoria tritici (SEPTTR); experiment: Field assessment of Compound I and fluxapyroxad on leaf blotch of wheat (AUDPC % control); settings: AUDPC-based, 2 field trials
Excerpt: Treatments consisting of the compound of Formula I and fungicide compound fluxapyroxad against fungal diseases of wheat were applied either using individually or as a two-way mixture of fluxapyroxad with the compound of Formula I. The compound of Formula I was applied with Agnique BP-420 (50% w/w at 0.3% v/v) at 50, 75 and 100 g ai/ha and Imtrex (Fluxapyroxad 62.5 g/L) was applied at 50, 75 and 100 g ai/ha. Commercial standards used in the studies were Adexar (epoxiconazole+fluxapyroxad—125 g/L), applied at 1.2 and 1.6 L pr/ha, and Elatus Era (benzovindiflupyr+prothioconazole—225 g/L), applied at 1.0 L pr/ha.
Fungicidal treatments containing the compound of Formula I and fluxapyroxad, either individually or as a two-way mixture, were assessed against leaf spot of wheat (SEPTTR) in two separate field trials. In the first trial, fungicidal treatments were applied at B32 (curative, 12% infection at application on L4) growth stage of winter wheat (TRZAW, TOBAK variety). The treatments were part of an experimental trial designed as a randomized complete block with four replications and a plot of approximately 2×2 m. Treatments were applied at water volume of 200 L/ha, using a backpack plot sprayer (BCYAIR, FLATFANA nozzle) and pressurized at 220 kPa.
as §1, with “applied” for “applied twice”, “B33-39” for “B32”, “50%” for “25%”, “L5)” for “L5) and B37-39 (5% infection at application on L3)”, “1.5×14” for “1×2”
(§2) Disease severity (percentage of visual diseased foliage on whole plot or leaves) in both field trials was recorded following EPPO PP1/26 guideline prescriptions. Area under the disease progress curve (AUDPC) was calculated for each plot in both trials using the sets of recorded severity data. Relative AUDPC (% control based on AUDPC) was calculated as percent of the nontreated control. Final results for the control of leaf spot of wheat by the compound of Formula I, fluxapyroxad and mixtures are reported as an average of the relative AUDPC calculated over both field trials. Statistical analysis was done according to ANOVA and Tukey's test (p=0.10).

[3] = system: Pyrenophora teres (PYRNTE); experiment: Field assessment of Compound I and fluxapyroxad on net blotch of barley (AUDPC % control); settings: AUDPC-based, 2 field trials
Description: Commercial standards used in the studies were Proline 275 (275 g ai/L Prothioconazole), applied at 150 g ai/ha, and SiltraXpro (200 g ai/L prothioconazole+60 g ai/[…] bixafen), applied at 195 g ai/ha.
Fungicidal treatments containing the compound of Formula I and fluxapyroxad, either individually or as a two-way mixture, were assessed against net blotch of barley (PYRNTE) in two separate field trials. In both trials, fungicidal treatments were applied at B31-37 growth stages of winter barley and sprong barley (HORVW, Lomeritt variety; HORVS, Scarlett variety) under natural infection of net blotch (protectant tests, 1% infection on leaf 4 and 10% infection on leaf 6 at application). All treatments were part of an experimental trial designed as a randomized complete block with four replications.
as §2, with “Final results for the control of leaf spot of wheat by the compound of Formula I, fluxapyroxad and mixtures are reported as an average of the relative AUDPC calculated over both field trials.” left out

Row | SMILES | SEPTTR % Control ([1]; rate 75 g ai/ha) [%] | SEPTTR % Control ([1]; rate 150 g ai/ha) [%] | SEPTTR % Control ([2]; rate 50 g ai/ha) [%] | SEPTTR % Control ([2]; rate 75 g ai/ha) [%] | SEPTTR % Control ([2]; rate 100 g ai/ha) [%] | PYRNTE % Control ([3]; rate 75 g ai/ha) [%] | PYRNTE % Control ([3]; rate 100 g ai/ha) [%] | PYRNTE % Control ([3]; rate 150 g ai/ha) [%] | PYRNTE % Control ([3]; rate 45 g ai/ha) [%] | PYRNTE % Control ([3]; rate 62.5 g ai/ha) [%]
1 | N#Cc1ccc(Oc2ccc(C(F)(F)C(O)(Cn3ncnc3S)c3ccc(F)cc3F)nc2)cc1 (centres unmarked) [Compound I, 4-((6-(2-(2,4-difluorophenyl)-1,1-difluoro-2-hydroxy-3-(5-mercapto-1H-1,2,4-triazol-1-yl)propyl)pyridin-3-yl)oxy)benzonitrile] | 60.6 | 71.1 | 43.9 | 50.7 | 56.6 | 8.66 | 23.5 | 40.8 |  | 
2 | Cn1cc(C(=O)Nc2ccccc2-c2cc(F)c(F)c(F)c2)c(C(F)F)n1 [Fluxapyroxad, 3-(difluoromethyl)-1-methyl-N-(3′,4′,5′-trifluorobiphenyl-2-yl)pyrazole-4-carboxamide] |  |  | 47.4 | 60.9 | 66.4 |  | 83.2 |  | 66.5 | 73.4
